# Data: patent US9333212B2, “Proteasome inhibitors as ovoprotective agents to shield the ovary from chemotherapy toxicity” (Wisconsin Alumni Research Foundation, priority 2013, dated 2016)
# “Also recorded” adds a separate entry of the source. Residues, ends and D or L forms follow the SMILES beside them. *: point of attachment. Cbz = O=C(OCc1ccccc1)*
# Key:
# mouse ovarian follicles [1] = experiment: TUNEL assay, follicular apoptotic index in mouse ovary; format: in vivo
# Source text: FIG. 5. […] Ovaries were harvested from treated mice 12 hrs post-DXR injection, fixed, and processed for the TUNEL assay. Apoptotic index measures the fraction of cells dying via apoptosis in each group. *p<0.05 one-way ANOVA n=4 mice.
# To determine whether Bort pretreatment prevents DXR-induced follicular apoptosis, ovaries were harvested from mice treated with control, DXR, or Bort+DXR, 12 hrs after chemotherapy administration. Ovaries were fixed and stained using the TUNEL assay. Follicles were scored as apoptotic if they contained ≧4 TUNEL-positive granulosa cells.
# TUNEL Staining. Apoptosis was detected utilizing ApopTag Plus Fluorescein In Situ Apoptosis Detection Kit as previously described. Nuclei were counterstained with 0.5 ug/mL Propidium Iodide. Apoptotic index was determined only counting follicles containing a visible oocyte; follicle types were differentiated by standard morphology and size ranges. Primary, secondary, and antral follicles were considered positive if they had ≧4 TUNEL-positive granulosa cells.
# To ascertain whether Bort pretreatment prevents DXR-induced follicular apoptosis, ovaries were harvested from mice treated with control vehicle, Bort, DXR, or Bort+DXR, 12 hrs after chemo administration.
# [2] = DXR accumulation in mouse ovary by autofluorescence (spectral confocal imaging); format: in vivo; settings: Bort pretreatment before DXR
# Source text: FIG. 11. […] A. Micrographs of mouse ovarian sections obtained by spectral confocal imaging (ex. 488 nm, em. given in panel B). Images are overlays of all collected emission wavelengths. Bar=40 μm. For print, images were adjusted equally to a threshold of 140 in Photoshop with no other image enhancements. B. Graph plots mean fluorescence intensity+/−SEM quantified from raw DXR fluorescence in ovarian sections representing the top, middle, and bottom third of the ovary. Emission profiles at 550-560 nm (cold finger) were not collected by the microscope to prevent direct detection of the excitation laser at that wavelength. Confocal parameters were identical from one sample to the next. DXR points are statistically significant from ctl and Bort-DXR with p<0.05, one-way ANOVA, Bonferroni means comparison.
# Fluorescence Microscopy. Images were collected using a Nikon A1 laser scanning microscope with a motorized stage to image the entire section at 400× magnification. Each spectral image was taken at the Z plane providing maximal signal in the section utilizing identical laser settings with the spectral scan head, exciting at 488 nm and collecting emissions from 520 nm through 720 nm at 10 nm intervals. […] Total DXR fluorescence was measured in each section image using Nikon Elements, quantifying fluorescent intensity at each emission wavelength.
# KK-15 granulosa cells = experiment: Neutral comet assay in KK-15 cells pretreated with proteasome inhibitor before DXR; format: cell-based; settings: 1 h pretreatment, then 3 hr 50 nM DXR
# Description: FIG. 6. […] (A) Pretreating KK-15 cells for 1 h with the indicated Bortezomib doses prevented dsDNA breaks caused by 3 hr, 50 nM DXR treatment, as measured by the NCA. […] Bar graphs summarize comet moment data. Bortezomib (n=3, ***p<0.001), MG-132, (n=4, ***p<0.001) ANOVA with Bonferroni means comparison.
# (§1) KK-15 cells were pretreated with either Bort or MG-132, boronate and aldehyde inhibitors, respectively, for 1 hr prior to DXR.
# female CD-1 mice = experiment: Breeding trial: pup birth weight and litter size of treated female mice; format: in vivo, mouse
# Description: Both drugs were administered via i.p. injection. Female mice were then mated with proven fertile males starting at 8 weeks of age. Females were mated continuously with males, separated only for pup delivery, then re-mated immediately with rotated males. Pregnancy and litters were followed until females reached 8 months of age or became infertile.
# L1210 cells = settings: cited from earlier work
# kidney = settings: by preserving Mcl-1 levels; cited from earlier work
# [3] = system: γH2AX phosphorylation, PTEN, phospho-AKT1, Caspase 3 in mouse ovary; experiment: Western blots of ovarian lysates for cell response markers
# Description: Lysate Preparation and Western Blots. Ovaries were homogenized, protein quantified, and WBs were conducted previously described [9]. Blots were probed with rabbit anti-γH2AFX antibody (Abcam, 1:500), and mouse anti-β actin (Sigma, 1:10,000), rabbit anti-phospho AKT1 (Cell Signaling 1:1000), rabbit anti-PTEN (Cell Signaling 1:1000), and rabbit anti-Caspase 3 (Cell Signaling 1:1000. WBs were scanned and analyzed using the 5 LiCor Odyssey System (UW-Small Molecule Screening Facility) [9].
# Mice. […] Four-week old female CD1 mice were treated with 0.143 mg/kg Bort or vehicle control, followed by 20 mg/kg DXR (twice the human equivalent dose) or saline via intraperitoneal injection (200 μL total volume/injection) 1 hour later. Three mice were injected per time point, 2, 4, 6, 12, and 24 hours, as indicated. Mice were euthanized with CO2 per approved protocol, and ovaries were processed as previously described [13].
# To determine whether Bort prevents the cellular response to DXR insult, Western blots (WBs) of ovarian lysates were probed for cell response markers at 6 and 24 hrs post-injection.
# [4] = system: mouse ovarian cells (granulosa, stromal/thecal cells, oocytes); experiment: Neutral comet assay of dsDNA breaks in ovarian cells isolated from treated mice
# Description: The neutral comet assay was used to measure acute DXR-induced double-strand DNA breaks in an in vivo mouse model as previously described [32]. 4-week-old adolescent female CD1 mice were pre-treated with intraperitoneal (i.p.) injection of 0.143 mg/kg Bort 1 hr prior to 20 mg/kg DXR.
# Four-week old female CD1 mice were treated with 0.143 mg/kg Bort or vehicle control, followed by 20 mg/kg DXR (twice the human equivalent dose) or saline via intraperitoneal injection (200 μL total volume/injection) 1 hour later. Three mice were injected per time point, 2, 4, 6, 12, and 24 hours, as indicated.
# Neutral Comet Assay. Ovaries were processed to provide enriched populations of granulosa cells/oocytes, and stromal/thecal cells that were utilized in the neutral comet assay [9, 13]. At least 100 granulosa and stromal cells and 50 oocytes were imaged from blinded slides per time point per mouse (3 mice/replicate) [9, 13]. The comet moment to quantify DNA damage was scored using CometScore software. Data were normalized to control for each experiment to allow pooling across experiments.
# Four week-old adolescent mice were pretreated with 0.143 mg/kg Bort or vehicle control via i.p. injection 1 hour prior to 20 mg/kg DXR i.p. injection. The Bort dose corresponded to ⅓ the lowest human equivalent dose utilized in chemo regimens (0.43 mg/m2 vs. 1.3 mg/m2), while the DXR dose was double the standard human equivalent dose to allow direct imaging of DXR fluorescence in subsequent experiments.
# rodent ovary = settings: in vivo; cited from earlier work
# KK-15 cells = experiment: DXR LD50 in KK-15 cells; format: cell-based
# Source text: as §1
# [5] = system: mouse ovarian cells (granulosa, stromal/thecal cells, oocytes); settings: previous characterization, cited from earlier work
# mouse ovarian follicles [6] = settings: previous characterization, cited from earlier work
# [7] = in vivo; cited from earlier work
# [8] = 1 month post-DXR; cited from earlier work
# [9] = system: cardiac-derived H9C2 cells; settings: cited from earlier work
# [10] = Bort pretreatment vs DXR alone, 12 hrs post-DXR
# [11] = Bort pretreatment, 24 hrs post-injection
compound,measurement,setting,value
"CC(C)C[C@H](NC(=O)[C@H](Cc1ccccc1)NC(=O)c1cnccn1)B(O)O [Bort, bortezomib]",DXR-induced apoptosis in the mouse ovary / ovarian follicles,"mouse ovarian follicles [1]; 0.143 mg/kg Bort 1 hr before 20 mg/kg DXR, 12 hrs",attenuates DXR-induced apoptosis; also recorded: prevented DXR-induced apoptosis
same,antral follicle apoptotic index,mouse ovarian follicles [1]; [10],small decrease in the antral follicle apoptotic index; also recorded: did not prevent antral follicle apoptosis
same,primary follicle apoptosis (TUNEL),mouse ovarian follicles [1]; [10],decreased apoptosis in primary follicles; also recorded: appeared to decrease apoptosis in primary follicles
same,secondary follicle apoptosis (TUNEL),mouse ovarian follicles [1]; [10],levels not different from control; also recorded: significantly attenuated TUNEL signal in secondary follicles
same,DXR fluorescence (accumulation) in the ovary,[2],dropped DXR fluorescence to baseline levels; also recorded: lack of chemo accumulation; also recorded: prevented DXR accumulation
same,DXR-induced dsDNA breaks in KK-15 cells (comet moment),KK-15 granulosa cells,prevented DNA damage
same,DXR-induced dsDNA breaks in KK-15 cells (comet moment),KK-15 granulosa cells; listed as Bortezomib,limited DXR-induced dsDNA breaks
same,"pup weight, deviation from control",female CD-1 mice; 0.143 mg/kg Bortezomib 1 hour before 10 mg/kg DXR,≤ 6 % of control
same,"litter size, mating round 1","female CD-1 mice; Bort-DXR treated mice, round 1",8 pups
same,"litter size, mating round 6","female CD-1 mice; Bort-DXR treated mice, round 6, end of the trial",12 pups
same,DXR nuclear accumulation in L1210 cells,L1210 cells,prevent DXR nuclear accumulation
same,protection of the kidney from cisplatin toxicity,kidney,shields the kidney from cisplatin toxicity
same,DXR-induced γH2A.X phosphorylation,"[3]; 1 hr Bort pretreatment, 6 hrs post-DXR injection",attenuated DXR-induced γH2A.X phosphorylation; also recorded: attenuates γH2AX phosphorylation
same,DXR-induced PTEN protein reduction,"[3]; Bort pretreatment, 6 hrs post-injection",PTEN protein reduction was eliminated
same,DXR-induced decrease of full-length Caspase 3,[3]; [11],prevented
same,DXR-induced loss of pAKT1,[3]; [11],similarly prevented; also recorded: restored AKT1 phosphorylation to control levels
same,"comet moment, stromal cells, deviation from control",[4]; 0.143 mg/kg Bort i.p. 1 hr before 20 mg/kg DXR,≤ 16 % of control
same,"comet moment, granulosa cells, deviation from control","[4]; 0.143 mg/kg Bort i.p. 1 hr before 20 mg/kg DXR, 2-24 hrs",≤ 10 % of control
same,DXR-induced DNA damage in stroma cells,"[4]; Bort pretreatment, 4 hrs post-DXR",attenuates DXR-induced DNA damage
same,DXR-induced DNA damage in granulosa and stromal cells,"[4]; Bort pretreatment, 12 hrs post-DXR",attenuates DXR-induced DNA damage
same,DXR-induced DNA damage in granulosa cells,"[4]; Bort pretreatment, 24 hrs post-DXR",attenuates DXR-induced DNA damage
same,DXR-induced DNA damage in oocytes,"[4]; Bort pretreatment, 24 hrs post-DXR injection",completely blocked DNA damage
same,"DXR-induced dsDNA breaks in all ovarian cell types (granulosa, stromal cells, oocytes)","[4]; Bort pretreatment, entire 24 hour acute insult period",completely prevented DXR-induced DNA damage; also recorded: blocked DXR-induced dsDNA breaks; also recorded: prevents DXR-induced dsDNA breaks; also recorded: prevented DXR-induced double strand DNA breaks
same,comet moment in stromal cells at 2 hrs,"[4]; Bort-DXR mice, 2 hrs, followed by a drop back to baseline",small rise in comet moment
N.N.[Cl][Pt][Cl] [cisplatin],circulating and follicular anti-mullerian hormone (AMH) levels,rodent ovary,decreases circulating and follicular levels of anti-mullerian hormone (AMH)
same,pregnancy rates and pups per litter,rodent ovary,decreases pregnancy rates and pups per litter
"COc1cccc2c1C(=O)c1c(O)c3c(c(O)c1C2=O)C[C@@](O)(C(=O)CO)C[C@@H]3O[C@H]1C[C@H](N)[C@H](O)[C@H](C)O1 [DXR, Doxorubicin]",apoptotic-positive secondary follicles,"mouse ovarian follicles [1]; DXR alone, 12 hrs",doubling of apoptotic-positive secondary follicles
same,LD50,KK-15 cells,50 nM
same,litter size relative to control,female CD-1 mice; 10 mg/kg DXR,50 % of control
same,decrease of pup birth weight compared to controls,female CD-1 mice; 10 mg/kg DXR i.p. to 4 week old females,17%
same,litter size,"female CD-1 mice; 10 mg/kg DXR, over mating rounds",5-8 pups/litter
same,"increase of DNA damage over control, granulosa cells",[5]; DXR,~2 fold
same,"maximal increase of DNA damage, stromal cells",[5]; DXR,50%
same,"time of first DNA damage, granulosa cells",[5]; post-injection,4 h
same,"time of first DNA damage, stromal/theca cells",[5]; post-injection,2 h
same,"time of first significant DNA damage over control, oocytes",[5]; post-injection,10 to 12 h
same,"apoptotic index, antral follicles",mouse ovarian follicles [6]; 8 hrs post-DXR,100%
same,"apoptotic index, primary follicles",mouse ovarian follicles [6]; 12 hours post-DXR,12%
same,"apoptotic index, secondary follicles (plateau)",mouse ovarian follicles [6]; 12 hours post-DXR,40%
same,time of first apoptotic events in primordial follicles,mouse ovarian follicles [6]; post-DXR,48 h
same,time to clearance from the blood stream,[7],15 to 30 min
same,ovulation rate relative to pre-DXR,[8],50%
same,PTEN protein expression,"[3]; DXR alone, 6 hrs post-injection",appeared to decrease PTEN protein expression levels
same,phosphorylated AKT1 (pAKT1) levels,"[3]; DXR alone, 24 hrs post-injection",appeared to decrease levels of phosphorylated AKT1
same,γH2A.X phosphorylation (17 kDa band),"[3]; DXR alone, ovarian lysates 6 hrs post-injection",increased γH2A.X phosphorylation
same,"comet moment (dsDNA breaks), stromal cells",[4]; 20 mg/kg DXR i.p. alone,150 % control values
same,"comet moment (dsDNA breaks), granulosa cells","[4]; 20 mg/kg DXR i.p. alone, rise over 2-24 hrs post-injection",250 % control values
CC(C)C[C@@H](C=O)NC(=O)[C@H](CC(C)C)NC(=O)[C@H](CC(C)C)NC(=O)OCc1ccccc1 [MG-132] (Cbz-Leu-Leu-Leu-aldehyde),DXR-induced dsDNA breaks in KK-15 cells (comet moment),KK-15 granulosa cells,limited DXR-induced dsDNA breaks; also recorded: prevented DNA damage
same,DXR nuclear accumulation in L1210 cells,L1210 cells,prevent DXR nuclear accumulation
same,DXR-induced DNA damage in H9C2 cells,[9],prevents DXR-induced DNA damage
